The record followed here is patent US7678810B2, “Thiazole derivative” (Taisho Pharmaceutical Co., Ltd, priority 2004, dated 2010).

Where a name gives a salt, the structure may show the parent alone. A value given as a limit tells only on which side of the number the result lay.

As for `CCC(CC)c1nc(-c2nc(C)cs2)c(-c2ccc3ncsc3c2)[nH]1` (as salt: HCl) [Compound 62], the melting point was in the range of 207 to 212 °C. As for `Cc1csc(-c2nc(CCCCC(=O)Nc3ccccc3)[nH]c2-c2ccc3ncsc3c2)n1` (as salt: HCl) [Compound 172], the figure is 105 to 117.5 °C. Under `C=CCOC(=O)NCc1nc(-c2nc(C)cs2)c(-c2ccc3ncsc3c2)[nH]1` (as salt: HCl) [Compound 192] stands 174 to 175 °C; under `CCN(CC)C(=O)OCc1nc(-c2nc(C)cs2)c(-c2ccc3ncsc3c2)[nH]1` (as salt: HCl) [Compound 237], 119 to 124 °C.

The molecule `Cc1csc(-c2nc(CCCN3CCOCC3)[nH]c2-c2ccc3c(c2)OCO3)n1` (as salt: salt) [Compound 76] showed a melting point of 118.5 to 128.5 °C. As for `NC(=O)c1ccc(-c2nc(-c3nccs3)c(-c3ccc4c(c3)OCO4)[nH]2)cc1` [Compound 2], the figure is 240 to 249 °C; as for `NC(=O)c1ccc(-c2nc(-c3nccs3)c(-c3ccccn3)[nH]2)cc1` [Compound 4], 255.5 to 256 °C. Under `CC(O)c1nc(-c2nc(-c3ccc(C(N)=O)cc3)[nH]c2-c2ccc3c(c2)OCO3)cs1` (stereo not drawn) [Compound 6] stands 140 to 148 °C. Under `CC(=O)c1nc(-c2nc(-c3ccc(C(N)=O)cc3)[nH]c2-c2ccc3c(c2)OCO3)cs1` [Compound 7] stands 153 to 159 °C; under `CCc1csc(-c2nc(-c3ccc(C(N)=O)cc3)[nH]c2-c2ccc3c(c2)OCO3)n1` [Compound 11], 259.5 to 261.5 °C. The molecule `NC(=O)c1ccc(-c2nc(-c3nc(Br)cs3)c(-c3ccc4c(c3)OCO4)[nH]2)cc1` [Compound 13] gave a melting point of 273 to 275.5 °C. As for `Cc1csc(-c2nc(-c3ccc(C#N)cc3)[nH]c2-c2ccc(F)cc2)n1` [Compound 17], the figure is 283.5 to 286 °C. As for `Cc1csc(-c2nc(-c3ccc(C(N)=O)cc3)[nH]c2-c2ccc(F)cc2)n1` [Compound 18], the figure is 281 to 281.5 °C. In the case of `Cc1csc(-c2nc(N)[nH]c2-c2ccc3c(c2)OCO3)n1` [Compound 19], the melting point fell in the range of 205.5 to 208 °C. The molecule `CC(=O)Nc1nc(-c2nc(C)cs2)c(-c2ccc3c(c2)OCO3)[nH]1` [Compound 20] returned a melting point of 169 to 173 °C. On to `Cc1csc(-c2nc(NC(=O)c3ccccc3)[nH]c2-c2ccc3c(c2)OCO3)n1` [Compound 22], for which the melting point fell in the range of 223 to 225 °C. As for `COc1ccc(CC(=O)NCc2nc(-c3nc(C)cs3)c(-c3ccc4c(c3)OCO4)[nH]2)cc1` [Compound 26], the figure is 165.5 to 169.5 °C. Under `Cc1csc(-c2nc(CCN)[nH]c2-c2ccc3c(c2)OCO3)n1` [Compound 27] stands 155.5 to 157.5 °C.

For `CCCC(=O)NCCc1nc(-c2nc(C)cs2)c(-c2ccc3c(c2)OCO3)[nH]1` [Compound 28], the melting point lay within 148 to 150 °C. Under `CCCC(=O)NCCCc1nc(-c2nc(C)cs2)c(-c2ccc3c(c2)OCO3)[nH]1` [Compound 30] stands 134.5 to 138.5 °C; under `CCCC(=O)NCCCCc1nc(-c2nc(C)cs2)c(-c2ccc3c(c2)OCO3)[nH]1` [Compound 33], 132 to 133 °C. On to `CCCNC(=O)c1nc(-c2nc(C)cs2)c(-c2ccc3c(c2)OCO3)[nH]1` [Compound 35], for which the melting point is 199.6 to 200 °C. Turning to `Cc1csc(-c2nc(C(=O)Nc3ccccc3)[nH]c2-c2ccc3c(c2)OCO3)n1` [Compound 36], the melting point lay in the range of 222 to 222.5 °C. Under `CCCNC(=O)CCc1nc(-c2nc(C)cs2)c(-c2ccc3c(c2)OCO3)[nH]1` [Compound 38] stands 106.5 to 108.5 °C; under `CCCNC(=O)CCCc1nc(-c2nc(C)cs2)c(-c2ccc3c(c2)OCO3)[nH]1` [Compound 40], 75 to 79 °C. Under `COc1ccc(CNC(=O)CCCCc2nc(-c3nc(C)cs3)c(-c3ccc4c(c3)OCO4)[nH]2)cc1` [Compound 44] stands 174 to 175 °C. Under `Cc1csc(-c2nc(-c3ccc(C(N)=O)cc3)[nH]c2-c2ccc(O)cc2)n1` [Compound 49] stands > 300 °C; under `CCCCCCc1nc(-c2nc(C)cs2)c(-c2ccc3ncsc3c2)[nH]1` [Compound 64], 129 to 130.5 °C. `CCCC(=O)NCc1nc(-c2nc(C)cs2)c(-c2ccc(O)cc2)[nH]1` [Compound 101] yielded a melting point of 135.5 to 136.5 °C. Under `CCCC(=O)NCc1nc(-c2nc(C)cs2)c(-c2ccc(OC)c(OCc3ccccc3)c2)[nH]1` [Compound 104] stands 176 to 177 °C; under `Cc1csc(-c2nc(CNC(=O)CC(C)C)[nH]c2-c2ccc3ncsc3c2)n1` [Compound 107], 160 to 160.5 °C; under `Cc1csc(-c2nc(CNC(=O)C3CCC3)[nH]c2-c2ccc3ncsc3c2)n1` [Compound 108], 199 to 200 °C.

`Cc1csc(-c2nc(CNC(=O)C(C)(C)C)[nH]c2-c2ccc3ncsc3c2)n1` [Compound 109] showed a melting point of 229 to 229.5 °C. Under `Cc1csc(-c2nc(CNC(=O)CCC(C)C)[nH]c2-c2ccc3ncsc3c2)n1` [Compound 110] stands 172.5 to 173.5 °C; under `CCC(C)(C)C(=O)NCc1nc(-c2nc(C)cs2)c(-c2ccc3ncsc3c2)[nH]1` [Compound 111], 212.5 to 213.5 °C; under `Cc1csc(-c2nc(CNC(=O)C3CCCC3)[nH]c2-c2ccc3ncsc3c2)n1` [Compound 112], 156.5 to 161 °C. As for `Cc1csc(-c2nc(CNC(=O)CN(C)C)[nH]c2-c2ccc3ncsc3c2)n1` [Compound 114], the figure is 211.5 to 212.5 °C; as for `Cc1csc(-c2nc(CNC(=O)CCN(C)C)[nH]c2-c2ccc3ncsc3c2)n1` [Compound 115], 150 to 150.5 °C; as for `Cc1csc(-c2nc(CNC(=O)CCCN(C)C)[nH]c2-c2ccc3ncsc3c2)n1` [Compound 116], 200.5 to 205.5 °C.

`Cc1csc(-c2nc(CNC(=O)C3CCN(C)CC3)[nH]c2-c2ccc3ncsc3c2)n1` [Compound 117] showed a melting point of 204 to 205.5 °C. The molecule `CNCC(=O)NCc1nc(-c2nc(C)cs2)c(-c2ccc3ncsc3c2)[nH]1` [Compound 118] came in with a melting point of 200.5 to 203.5 °C. Under `Cc1csc(-c2nc(CNC(=O)CN)[nH]c2-c2ccc3ncsc3c2)n1` [Compound 120] stands 214.5 to 215 °C. Under `Cc1csc(-c2nc(CNC(=O)CCO)[nH]c2-c2ccc3ncsc3c2)n1` [Compound 122] stands 215 to 218.5 °C; under `COCCOCC(=O)NCc1nc(-c2nc(C)cs2)c(-c2ccc3ncsc3c2)[nH]1` [Compound 123], 134 to 135.5 °C; under `COCCCC(=O)NCc1nc(-c2nc(C)cs2)c(-c2ccc3ncsc3c2)[nH]1` [Compound 125], 186.5 to 190 °C.

Molecule `Cc1csc(-c2nc(CNC(=O)COCCO)[nH]c2-c2ccc3ncsc3c2)n1` [Compound 126] showed a melting point of 193 to 194 °C. As for `COCCC(=O)NCc1nc(-c2nc(C)cs2)c(-c2ccc3ncsc3c2)[nH]1` [Compound 127], the figure is 154.5 to 155.5 °C. As for `Cc1csc(-c2nc(CNC(=O)C3CCOC3)[nH]c2-c2ccc3ncsc3c2)n1` (stereo not drawn) [Compound 128], the figure is 174 to 175 °C; as for `Cc1csc(-c2nc(CNC(=O)C3CCCO3)[nH]c2-c2ccc3ncsc3c2)n1` (stereo not drawn) [Compound 130], 185 to 185.5 °C; as for `CCCCNC(=O)c1nc(-c2nc(C)cs2)c(-c2ccc3ncsc3c2)[nH]1` [Compound 140], 209.5 to 212.5 °C.

`COC(=O)CCc1nc(-c2nc(C)cs2)c(-c2ccc3ncsc3c2)[nH]1` [Compound 142] showed a melting point of 168.5 to 170.5 °C. As for `Cc1csc(-c2nc(CCC(=O)NC(C)C)[nH]c2-c2ccc3ncsc3c2)n1` [Compound 145], the figure is 217.5 to 218 °C; as for `Cc1csc(-c2nc(CCC(=O)NC3CC3)[nH]c2-c2ccc3ncsc3c2)n1` [Compound 146], 196.5 to 197 °C. For `Cc1csc(-c2nc(CCC(=O)NC(C)(C)C)[nH]c2-c2ccc3ncsc3c2)n1` [Compound 147], the melting point was in the range of 201.5 to 202 °C. In the case of `Cc1csc(-c2nc(CCC(=O)N3CCCCC3)[nH]c2-c2ccc3ncsc3c2)n1` [Compound 148], the melting point lay within 179 to 180 °C. As for `Cc1csc(-c2nc(CCC(=O)NCCN(C)C)[nH]c2-c2ccc3ncsc3c2)n1` [Compound 149], the figure is 163.5 to 164 °C; as for `Cc1csc(-c2nc(CCC(=O)NCCCN(C)C)[nH]c2-c2ccc3ncsc3c2)n1` [Compound 150], 78.5 to 82.5 °C. As for `Cc1csc(-c2nc(CCC(=O)NCCN3CCCCC3)[nH]c2-c2ccc3ncsc3c2)n1` [Compound 151], the figure is 114 to 119 °C; as for `Cc1csc(-c2nc(CCC(=O)NCCN3CCCC3)[nH]c2-c2ccc3ncsc3c2)n1` [Compound 152], 171 to 173 °C; as for `Cc1csc(-c2nc(CCC(=O)NCCCN3CCN(C)CC3)[nH]c2-c2ccc3ncsc3c2)n1` [Compound 153], 188 to 189 °C. As for `Cc1csc(-c2nc(CCC(=O)N3CCN(C)CC3)[nH]c2-c2ccc3ncsc3c2)n1` [Compound 155], the figure is 201 to 201.5 °C; as for `Cc1csc(-c2nc(CCC(=O)N3CCN(CCN4CCOCC4)CC3)[nH]c2-c2ccc3ncsc3c2)n1` [Compound 157], 164.5 to 166 °C; as for `Cc1csc(-c2nc(CCC(=O)N3CCN(CCN(C)C)CC3)[nH]c2-c2ccc3ncsc3c2)n1` [Compound 158], 169.5 to 172 °C. Take `Cc1csc(-c2nc(CCC(=O)N3CCOCC3)[nH]c2-c2ccc3c(c2)OCO3)n1` [Compound 161]: the melting point lay in the range of 216.5 to 218 °C.

For the molecule `COCCCNC(=O)CCc1nc(-c2nc(C)cs2)c(-c2ccc3ncsc3c2)[nH]1` [Compound 164], the melting point is 144.5 to 145 °C. As for `COc1ccc(CNC(=O)CCCCc2nc(-c3nc(C)cs3)c(-c3ccc4ncsc4c3)[nH]2)cc1` [Compound 173], the figure is 140 to 140.5 °C.
